Biological target: T1, V3 receptor (Rattus norvegicus, UniProt P48974)
T1 construct: Anterior pituitary corticotrophs were prepared from adult female Sprague-Dawley rats; endogenous in cells; host or cells: primary anterior pituitary corticotrophs from adult female Sprague-Dawley rats
T1 sequence (P48974 1-425): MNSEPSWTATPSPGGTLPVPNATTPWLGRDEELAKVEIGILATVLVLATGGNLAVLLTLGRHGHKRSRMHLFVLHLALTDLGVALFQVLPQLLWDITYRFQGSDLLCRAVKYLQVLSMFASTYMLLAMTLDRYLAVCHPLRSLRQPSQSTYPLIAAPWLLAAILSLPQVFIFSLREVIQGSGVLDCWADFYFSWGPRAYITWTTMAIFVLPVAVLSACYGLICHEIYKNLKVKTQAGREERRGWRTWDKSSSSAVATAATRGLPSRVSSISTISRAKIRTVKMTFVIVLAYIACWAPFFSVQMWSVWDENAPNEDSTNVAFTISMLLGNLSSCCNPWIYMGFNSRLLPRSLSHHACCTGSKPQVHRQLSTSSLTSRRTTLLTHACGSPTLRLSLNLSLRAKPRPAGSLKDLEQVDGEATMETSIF
Test: Block of AVP-induced ACTH release from isolated rat anterior pituitary corticotrophs
Format: cell-based
Conditions: ACTH release after 3x10^-9 mol/L AVP for 120 minutes; ELISA; read-out: V3 receptor antagonism in isolated rat anterior pituitary cells
Method: The ability of compounds of the invention to act as V3 antagonists in a physiologically relevant system was determined by measuring their ability to block the release of adrenocorticotropic hormone (ACTH) from anterior pituitary corticotrophs in response to treatment with arginine vasopressin (AVP).
Anterior pituitary corticotrophs were prepared from adult female Sprague-Dawley rats and seeded into 48 well plates. The cells were cultured for 4 days prior to exposure to compound. Test compounds were prepared at 10^−5 mol.L^−1 in 100% DMSO. Cells were exposed to a dose response of test compounds for 20 minutes (10^−8 mol.L^−1−10^−5 mol.L^−1). The final concentration of DMSO in the assay was kept constant at 0.3%. The cells were then exposed to 3×10^−9 mol.L^−1 AVP for 120 minutes. Supernatants were harvested and stored at −20° C. ACTH levels were subsequently measured by ELISA following the manufacturer's instructions (Immunodiagnostic systems, UK (Cat No. DX-SDX018)). Each treatment was carried out in quadruplicate and a mean value obtained for the amount of ACTH released. The degree of antagonism was then calculated as a percentage of the amount of ACTH released by agonist alone after adjustment for basal levels of ACTH. A pIC50 was calculated by fitting a Sigmoidal dose response (variable slope) curve with a non-linear (fit) to the data using the software package GraphPad prism. […]

Row | IC50 | SMILES
1 | 100 to 1000 nM | CC(C)NC(=O)Cn1c(-c2cccc(Cl)c2)cc2ccc(OC[C@@H](C)CN3CCCC3)cc2c1=O [EXAMPLE 1, 2-[3-(3-Chlorophenyl)-7-((S)-2-methyl-3-pyrrolidin-1-ylpropoxy)-1-oxo-1H-isoquinolin-2-yl]-N-isopropylacetamide]
2 | 10 to 100 nM | CC(C)(C)NC(=O)Cn1c(-c2cccc(Cl)c2)cc2ccc(OCCCN3CCC(O)CC3)cc2c1=O [EXAMPLE 17, N-tert-Butyl-2-{3-(3-Chlorophenyl)-7-[3-(4-hydroxypiperidin-1-yl)-propoxy]-1-oxo-1H-isoquinolin-2-yl}-acetamide]

Biological target: T2, human V3 receptor (Homo sapiens, UniProt P47901)
T2 construct: expressed in transfected cells
T2 sequence (P47901 1-424): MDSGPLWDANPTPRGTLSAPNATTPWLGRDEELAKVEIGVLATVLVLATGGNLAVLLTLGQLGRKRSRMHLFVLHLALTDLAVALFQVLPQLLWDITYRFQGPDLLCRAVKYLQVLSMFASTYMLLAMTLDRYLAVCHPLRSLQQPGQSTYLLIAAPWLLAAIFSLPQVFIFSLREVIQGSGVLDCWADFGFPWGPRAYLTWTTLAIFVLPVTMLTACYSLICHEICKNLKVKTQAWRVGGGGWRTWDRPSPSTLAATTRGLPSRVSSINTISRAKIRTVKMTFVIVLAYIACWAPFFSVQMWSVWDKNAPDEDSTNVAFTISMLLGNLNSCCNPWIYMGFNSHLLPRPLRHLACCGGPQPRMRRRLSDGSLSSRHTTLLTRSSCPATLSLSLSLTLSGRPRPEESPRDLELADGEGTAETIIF
Test: [3H]AVP binding to CHO cells stably expressing the human V3 receptor
Conditions: [3H]AVP 2.5x10^-9 mol/L
Method: Chinese Hamster Ovary (CHO) cells stably expressing the human V3 receptor were incubated to equilibrium with the test compound (at a final assay concentration of 10^−10 mol.L^−1 to 10^−5 mol.L^−1) and [^3H]AVP (at a final assay concentration of 2.5×10^−9 mol.L^−1). […] After washing with ice-cold phosphate buffered saline (PBS), scintillation fluid was added and the plates counted on a Topcount NXT apparatus.
A sigmoidal dose response curve (non-linear regression, variable slope) was plotted as concentration of test compound (mol.L^−1) against percentage specific binding of [^3H]AVP and a Ki value was calculated. Each determination was carried out in triplicate and repeated on at least 3 separate occasions

Row | Ki | SMILES
3 | 10 to 100 nM | CC(C)NC(=O)Cn1c(-c2cccc(F)c2)cc2ccc(OC[C@@H](C)CN(C)C)cc2c1=O [EXAMPLE 3, 2-[7-((S)-3-Dimethylamino-2-methylpropoxy)-3-(3-fluorophenyl)-1-oxo-1H-isoquinolin-2-yl]-N-isopropylacetamide]
4 | 100 to 1000 nM | COc1cccc(-c2cc3ccc(OC[C@@H](C)CN4CCCCC4)cc3c(=O)n2CC(=O)NC(C)C)c1 [EXAMPLE 14, N-Isopropyl-2-[3-(3-methoxyphenyl)-7-((S)-2-methyl-3-piperidin-1-ylpropoxy)-1-oxo-1H-isoquinolin-2-yl]acetamide]
5 | 10 to 100 nM | COc1cccc(-c2cc3ccc(OCCCN4CCCC4)cc3c(=O)n2CC(=O)NC(C)(C)C)n1 [EXAMPLE 23, N-tert-Butyl-2-[3-(6-methoxypyridin-2-yl)-1-oxo-7-(3-pyrrolidin-1-ylpropoxy)-1H-isoquinolin-2-yl]acetamide]
6 | < 10 nM | CC(C)NC(=O)Cn1c(-c2ccccc2)cc2ccc(OCCCN3CCCCC3)cc2c1=O [EXAMPLE 26, N-Isopropyl-2-[1-oxo-3-phenyl-7-(3-piperidin-1-ylpropoxy)-1H-isoquinolin-2-yl]acetamide]
7 | 100 to 1000 nM | CC(C)(C)NC(=O)Cn1c(-c2ccc(F)c(Cl)c2)cc2ccc(OCCCN3CCCC3)cc2c1=O [EXAMPLE 28, N-tert-Butyl-2-[3-(3-chloro-4-fluorophenyl)-1-oxo-7-(3-pyrrolidin-1-ylpropoxy)-1H-isoquinolin-2-yl]acetamide]
8 | 10 to 100 nM | CC(C)NC(=O)Cn1c(-c2cccc(Cl)c2)cc2ccc(-c3cccc(CN4CCCCC4)c3)cc2c1=O [EXAMPLE 35, 2-[3-(3-Chlorophenyl)-1-oxo-7-(3-piperidin-1-ylmethylphenyl)-1H-isoquinolin-2-yl]-N-isopropylacetamide]

Source: patent US7906504B2, “2-(1-oxo-1H-isoquinolin-2-yl)acetamide derivatives” (N.V. Organon, priority 2006, dated 2011)
